# Assay results published in patent publication US9732072B2, “PRMT5 inhibitors and uses thereof” (Epizyme, Inc., priority 2012, dated 2017).
# System: Z-138 cell line
# Test: Z-138 Proliferation Assay (Cell Titer Glo)
# Format: cell-based
# Details: Homo sapiens, 120 h; Z-138 cells, 5 days, top concentration 20 μM
# From the text: [formula] Z-138 Proliferation Assay
# Z-138 suspension cells were purchased from ATCC (American Type Culture Collection, Manassas, Va.). RPMI/Glutamax medium, penicillin-streptomycin, heat inactivated fetal bovine serum were purchased from Life Technologies, Grand Island, N.Y., USA. V-bottom polypropylene 384-well plates were purchased from Greiner Bio-One, Monroe, N.C., USA. Cell culture 384-well white opaque plates were purchased from Perkin Elmer, Waltham, Mass., USA. Cell-Titer Glo® was purchased from Promega Corporation, Madison, Wis., USA. SpectraMax M5 plate reader was purchased from Molecular Devices LLC, Sunnyvale, Calif., USA. […]
# For the assessment of the effect of compounds on the proliferation of the Z-138 cell line, exponentially growing cells were plated in 384-well white opaque plates at a density of 10,000 cells/ml in a final volume of 50 μl of assay medium. […] Cell viability was measured by quantitation of ATP present in the cell cultures, adding 35 μl of Cell Titer Glo® reagent to the cell plates. Luminescence was read in the SpectraMax M5 microplate reader. The concentration of compound inhibiting cell viability by 50% was determined using a 4-parametric fit of the normalized dose response curves.
row,Compound,EC50 [nM]
1,"CN1CCOc2cccc(OCC(=O)NCC(O)CN3Cc4ccccc4C3)c21 (stereo not shown) [Compound 10, N-(2-hydroxy-3-(isoindolin-2-yl)propyl)-2-((4-methyl-3,4-dihydro-2H-benzo[b][1,4]oxazin-5-yl)oxy)acetamide]",> 20000

# System: Symmetric Di-Methyl Arginine in Z-138 cells
# Test: Z-138 Methylation Assay (In Cell Western for symmetric di-methyl arginine)
# Format: cell-based
# Details: Homo sapiens, 96 hours incubation, read-out: ICW EC50
# From the text: [formula] Where top and bottom are the normally allowed to float, but may be fixed at 100 or 0 respectively in a 3-parameter fit. The Hill Coefficient normally allowed to float but may also be fixed at 1 in a 3-parameter fit. Y is the % inhibition and X is the compound concentration. Z-138 Methylation Assay
# Z-138 suspension cells were purchased from ATCC (American Type Culture Collection, Manassas, Va.). RPMI/Glutamax medium, penicillin-streptomycin, heat inactivated fetal bovine serum, and D-PBS were purchased from Life Technologies, Grand Island, N.Y., USA. Odyssey blocking buffer, 800CW goat anti-rabbit IgG (H+L) antibody, and Licor Odyssey infrared scanner were purchased from Licor Biosciences, Lincoln, Nebr., USA. Symmetric di-methyl arginine antibody was purchased from EMD Millipore, Billerica, Mass., USA. […]
# First, the ratio for each well was determined by:
# Each plate included fourteen control wells of DMSO only treatment (minimum inhibition) as well as fourteen control wells for maximum inhibition treated with 3 μM of a reference compound (Background wells). The average of the ratio values for each control type was calculated and used to determine the percent inhibition for each test well in the plate. […] Percent inhibition was determined and IC50 curves were generated using triplicate wells per concentration of compound. […]
row,Compound,EC50 [nM]
1,"CN1CCOc2cccc(OCC(=O)NCC(O)CN3Cc4ccccc4C3)c21 (stereo not shown) [Compound 10, N-(2-hydroxy-3-(isoindolin-2-yl)propyl)-2-((4-methyl-3,4-dihydro-2H-benzo[b][1,4]oxazin-5-yl)oxy)acetamide]",101 to 1000
2,O=C(NCC(O)CN1Cc2ccccc2C1)c1cccc(NC2CCOCC2)c1 (stereo not shown) [Compound 8],101 to 1000

# Biological target: PRMT5/MEP50 (Homo sapiens (Human), UniProt O14744)
# Test: PRMT5 Biochemical Assay (PRMT5/MEP50 enzyme assay on peptide substrate, 3H-SAM Flashplate)
# Details: PRMT5/MEP50 4 nM, 3H-SAM 75 nM, peptide 40 nM
# From the text: S-adenosylmethionine (SAM), S-adenosylhomocysteine (SAH), bicine, KCl, Tween20, dimethylsulfoxide (DMSO), bovine skin gelatin (BSG), and Tris(2-carboxyethyl)phosphine hydrochloride solution (TCEP) were purchased from Sigma-Aldrich at the highest level of purity possible. ^3H-SAM was purchase from American Radiolabeled Chemicals with a specific activity of 80 Ci/mmol. 384-well streptavidin Flashplates were purchased from PerkinElmer.
# Peptide representative of human histone H4 residues 1-15 was synthesized with a C-terminal linker-affinity tag motif and a C-terminal amide cap by 21st Century Biochemicals. The peptide was high high-performance liquid chromatography (HPLC) purified to greater than 95% purity and confirmed by liquid chromatography mass spectrometry (LC-MS). The sequence was Ac-[…][K-Biot]-amide (SEQ ID NO.:3).
# Full-length human PRMT5 (NM_006109.3) transcript variant 1 clone was amplified from a fetal brain cDNA library, incorporating flanking 5′ sequence encoding a FLAG tag ([…]) (SEQ ID NO.:4) fused directly to Ala 2 of PRMT5. Full-length human MEP50 (NM_024102) clone was amplified from a human testis cDNA library incorporating a 5′ sequence encoding a 6-histidine tag (MHHHHHH) (SEQ ID NO.:5) fused directly to Arg 2 of MEP50. The amplified genes were sublconed into pENTR/D/TEV (Life Technologies) and subsequently transferred by Gateway™ attL×attR recombination to pDEST8 baculvirus expression vector (Life Technologies).
# Recombinant baculovirus and Baculovirus-Infected Insect Cells (BIIC) were generated according to Bac-to-Bac kit instructions (Life Technologies) and Wasilko, 2006, respectively. Protein over-expression was accomplished by infecting exponentially growing Spodoptera frugiperda (SF9) cell culture at 1.2×10^6 cell/ml with a 5000 fold dilution of BIIC stock. Infections were carried out at 27° C. for 72 hours, harvested by centrifugation, and stored at −80° C. for purification.
# Flag-PRMT5/6His-MeP50 was eluted with 300 mM Imidazole in the same buffer. The purity of recovered protein was 87%. Reference: Wasilko, D. J. and S. E. Lee: “TIPS: titerless infected-cells preservation and scale-up” Bioprocess J., 5 (2006), pp. 29-32.
# General Procedure for PRMT5/MEP50 Enzyme Assays on Peptide Substrates.
# The assays were all performed in a buffer consisting of 20 mM Bicine (pH=7.6), 1 mM TCEP, 0.005% BSG, and 0.002% Tween20, prepared on the day of use. Compounds in 100% DMSO (1 ul) were spotted into a polypropylene 384-well V-bottom plates (Greiner) using a Platemate Plus outfitted with a 384-channel head (Thermo Scientific). DMSO (1 ul) was added to Columns 11, 12, 23, 24, rows A-H for the maximum signal control and 1 ul of SAH, a known product and inhibitor of PRMT5/MEP50, was added to columns 11, 12, 23, 24, rows I-P for the minimum signal control. A cocktail (40 ul) containing the PRMT5/MEP50 enzyme and the peptide was added by Multidrop Combi (Thermo-Fisher). The compounds were allowed to incubate with PRMT5/MEP50 for 30 min at 25 degrees Celsius, then a cocktail (10 ul) containing ^3H-SAM was added to initiate the reaction (final volume=51 ul). The final concentrations of the components were as follows: PRMT5/MEP50 was 4 nM, ^3H-SAM was 75 nM, peptide was 40 nM, SAH in the minimum signal control wells was 100 uM, and the DMSO concentration was 1%. The assays were stopped by the addition of non-radioactive SAM (10 ul) to a final concentration of 600 uM, which dilutes the ^3H-SAM to a level where its incorporation into the peptide substrate is no longer detectable. 50 ul of the reaction in the 384-well polypropylene plate was then transferred to a 384-well Flashplate and the biotinylated peptides were allowed to bind to the streptavidin surface for at least 1 hour before being washed three times with 0.1% Tween20 in a Biotek ELx405 plate washer. […]
# PRMT5/MEP50, sequence (O14744 other isoform, or with tags, fused parts or gaps): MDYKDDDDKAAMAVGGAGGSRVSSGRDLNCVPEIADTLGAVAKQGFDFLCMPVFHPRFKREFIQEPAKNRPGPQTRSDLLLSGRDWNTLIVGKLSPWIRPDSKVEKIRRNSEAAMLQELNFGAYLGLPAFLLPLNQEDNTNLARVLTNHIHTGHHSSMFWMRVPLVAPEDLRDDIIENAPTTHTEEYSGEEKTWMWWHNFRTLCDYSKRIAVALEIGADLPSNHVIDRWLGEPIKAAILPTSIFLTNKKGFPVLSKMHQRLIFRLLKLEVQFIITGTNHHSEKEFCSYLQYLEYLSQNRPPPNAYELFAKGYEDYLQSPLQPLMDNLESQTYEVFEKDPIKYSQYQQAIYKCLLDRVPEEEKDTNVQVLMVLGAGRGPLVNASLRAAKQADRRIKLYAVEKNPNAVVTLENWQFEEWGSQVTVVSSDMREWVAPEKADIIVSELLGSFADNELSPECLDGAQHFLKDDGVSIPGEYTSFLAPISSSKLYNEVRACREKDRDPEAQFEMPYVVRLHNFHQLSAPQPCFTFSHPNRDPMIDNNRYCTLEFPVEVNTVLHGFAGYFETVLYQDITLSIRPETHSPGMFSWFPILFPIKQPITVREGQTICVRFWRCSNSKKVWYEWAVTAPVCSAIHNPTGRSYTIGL
# PRMT5/MEP50, sequence (Q9BQA1 other isoform, or with tags, fused parts or gaps partner): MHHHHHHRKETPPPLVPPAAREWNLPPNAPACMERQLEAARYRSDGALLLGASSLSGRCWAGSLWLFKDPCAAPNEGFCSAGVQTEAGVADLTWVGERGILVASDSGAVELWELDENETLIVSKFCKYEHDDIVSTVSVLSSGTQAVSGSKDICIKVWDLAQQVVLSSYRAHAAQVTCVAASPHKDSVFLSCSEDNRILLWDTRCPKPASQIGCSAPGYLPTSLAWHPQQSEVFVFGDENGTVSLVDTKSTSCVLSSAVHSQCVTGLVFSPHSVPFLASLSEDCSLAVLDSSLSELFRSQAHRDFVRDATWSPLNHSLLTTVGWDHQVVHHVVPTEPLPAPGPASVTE
row,Compound,IC50 [nM]
1,C[C@H](Oc1cccc2cccnc12)C(=O)NC[C@H](O)CN1Cc2ccccc2C1 [Compound 1],1000 to 10000
2,CN1CCOc2cccc(OCC(=O)NC[C@@H](O)CN3Cc4ccccc4C3)c21 [Compound 22],101 to 1000
3,CN(C)S(=O)(=O)c1ccccc1OCC(=O)NC[C@@H](O)CN1Cc2ccccc2C1 [Compound 21],101 to 1000
4,"C[C@@H](Oc1cccc2cccnc12)C(=O)NC[C@@H](O)CN1Cc2ccccc2C1 [Compound 3, (R)—N—((R)-2-hydroxy-3-(isoindolin-2-yl)propyl)-2-(quinolin-8-yloxy)propanamide]",1000 to 10000
5,O=C(NC[C@H](O)CN1Cc2ccccc2C1)c1ccnc(NC2CCOCC2)c1 [Compound 30],< 100
6,Cn1ncc2ccc(OCC(=O)NC[C@H](O)CN3Cc4ccccc4C3)cc21 [Compound 27],101 to 1000
7,"CN1CCOc2cccc(OCC(=O)NCC(O)CN3Cc4ccccc4C3)c21 (stereo not shown) [Compound 10, N-(2-hydroxy-3-(isoindolin-2-yl)propyl)-2-((4-methyl-3,4-dihydro-2H-benzo[b][1,4]oxazin-5-yl)oxy)acetamide]",101 to 1000
8,C[C@H](Oc1cccc2cccnc12)C(=O)NC[C@@H](O)CN1Cc2ccccc2C1 [Compound 6],> 10000
9,"Cn1cnc2ccc(-c3cccc(OC[C@H](O)CN4Cc5ccccc5C4)c3)cc21 [Compound 17, (R)-1-(isoindolin-2-yl)-3-(3-(1-methyl-1H-benzo[d]imidazol-6-yl)phenoxy)propan-2-ol]",1000 to 10000
10,Cn1ncc2ccc(OCC(=O)NC[C@@H](O)CN3Cc4ccccc4C3)cc21 [Compound 25],10000 to 50000
11,CN1CCOc2cccc(OCC(=O)NC[C@H](O)CN3Cc4ccccc4C3)c21 [Compound 26],101 to 1000
12,Cn1cnc2ccc(-c3cccc(OC[C@@H](O)CN4Cc5ccccc5C4)c3)cc21 [Compound 14],10000 to 50000
13,CN(C)S(=O)(=O)c1ccccc1OCC(=O)NC[C@H](O)CN1Cc2ccccc2C1 [Compound 23],< 100
